Experimental data: patent publication US20110207779A1, “PROCESS FOR THE PREPARATION OF ESOMEPRAZOLE MAGNESIUM” (GLENMARK GENERICS LTD, priority 2010, published 2011)

Assay: R-isomer content of formulated esomeprazole magnesium dihydrate after incubation in a closed container (chiral HPLC)
Format: physicochemical
Conditions: formulated in above mentioned dosage forms (capsules, mini-tablets); incubated in a closed container; temperature and time not given
Description: The content of R-isomer in esomeprazole magnesium dihydrate was measured by chiral high performance liquid chromatography equipped with quaternary gradient pumps, variable wavelength UV detector attached with data recorder and integrator software under the following conditions:
Buffer preparation: mix 70 mL of 156.0 g/l solution of sodium dihydrogen phosphate R with 20 mL of a 179.1 g/l solution of disodium hydrogen phosphate R. Dilute with water to 1000 mL and then dilute 250 mL of this solution with water to 1000 ml. Mobile phase: Acetonitrile: buffer solution pH 6.0 (65:435, v/v).

COc1ccc2[n-]c([S@@+]([O-])Cc3ncc(C)c(OC)c3C)nc2c1.COc1ccc2[n-]c([S@@+]([O-])Cc3ncc(C)c(OC)c3C)nc2c1.O.O.[Mg+2] [Esomeprazole magnesium dihydrate, esomeprazole magnesium dihydrate]
R-isomer content after formulation and incubation (chiral stability): remains within the range of R-isomer content
